Results as given in patent US5352707A, “Method for treating airway congestion” (Harbor Branch Oceanographic Institution, Inc., priority 1992, dated 1994).

What was measured:
H3 receptor = target: T1, H3 receptor (Cavia porcellus, UniProt Q9JI35); test: H3 Receptor Binding Assay ([3H]R-α-methylhistamine, guinea pig brain membranes); details: 3 nM [3H]R-α-methylhistamine, 30° C., 30 minutes
T1 construct: The source of the H3 receptors in this experiment was guinea pig brain; from tissue; host or cells: guinea pig brain membranes
Experimental: The source of the H3 receptors in this experiment was guinea pig brain. The animals used weighed 400-600 g. The tissue was homogenized using a Polytron in a solution of 50 mM Tris, pH 7.5. The final concentration of tissue in the homogenization buffer was 10% w/v. The homogenates were centrifuged at 1000×g for 10 minutes in order to remove clumps of tissue and debris. The resulting supernatants were then centrifuged at 50,000×g for 20 minutes in order to sediment the membranes, which were next washed 3 times in homogenization buffer (50,000×g for 20 minutes each). The membranes were frozen and stored at -70° C. until needed.
All compounds to be tested were dissolved in DMSO (dimethyl sulfoxide) and then diluted into the binding buffer (50 mM Tris, pH 7.5) such that the final concentration was 2 μg/mL with 0.1% DMSO. Membranes were then added (400 μg of protein) to the reaction tubes. The reaction was started by the addition of 3 nM [^3 H]R-α-methylhistamine (8.8 Ci/mmol) and incubated at 30° C. for 30 minutes. Bound ligand was separated from unbound ligand by filtration, and the amount of radioactive ligand bound to the membranes was quantitated by liquid scintillation spectrometry. All incubations were performed in duplicate and the standard error was less than 10% in all instances.

guinea pig ileum = test: Guinea Pig Ileum Assay (electrical field stimulated contractions; H3 agonism/antagonism vs Rα-methylhistamine); assay type: cell-based; details: for Guinea Pig Ileum: at 1 μg/ml, 1 μM chlorpheniramine in Tyrodes buffer
Experimental: Male guinea pigs (450-500 g) were sacrificed by cervical dislocation. Portions of the ileum (20-40 cm) were removed and placed in Tyrodes solution (NaCl, 8.0; KCl, 0.2; MgCl2.6H2 O, 0.2; CaCl2. 0.13; NaH2 PO4. 0.06; dextrose, 1.0; NaHCO3, 1.0 g/l). The ilea were cut into 2.5 cm segments, mounted between platinum wire coaxial electrodes and placed in water-jacketed organ baths containing 25 ml of the Tyrodes solution. Bath fluid temperature was maintained at 37° C. and aerated with 95% 02-5%CO2. The muscles were suspended from isometric force transducers (Grass FT023C) under 0.3 g resting tension. Contractions were amplified on a Buxco tension monitor and recorded on a Harvard polygraph. Monophasic rectangular-wave electrical pulses were delivered to the tissues every 60 seconds from a stimulator (model S-48, Grass Instruments Co.). The ileum segments were maximally stimulated with 3 volts at 40 Hz frequency and 1 mseconds duration in 1 pulse train every 60 seconds. The duration of 1 msecond was then decreased by 0.1 msecond until the size of the contraction reached 80% of the maximal response. Once this 80% response was determined it was evoked every 60 seconds throughout the experiment. All experiments were conducted with 1μM of chlorpheniramine present in the Tyrodes buffer.
Rα-methylhistamine inhibits the electrical field stimulated contractions of the guinea pig ileum and was used as the H3 agonist reference standard. H3 agonists were studied for their ability to inhibit the electrical field stimulated contractions and their activity was expressed as a percentage of the maximum Rα-methylhistamine effect. Agonists were tested by addition of logarithmically increasing doses to the bath fluid at intervals of 1 minute. […]
Relative potency for agonists was determined from the pD2 calculations (Furchgott, R.F., The Pharmacology of Vascular Smooth Muscle. Pharm. Rev. 7, 183, 1955.) on 5 separate tissues. Relative potency for antagonists was determined from pA2 calculations (See Furchgott, above) on 15 separate tissues.

T1 sequence (Q9JI35 whole entry): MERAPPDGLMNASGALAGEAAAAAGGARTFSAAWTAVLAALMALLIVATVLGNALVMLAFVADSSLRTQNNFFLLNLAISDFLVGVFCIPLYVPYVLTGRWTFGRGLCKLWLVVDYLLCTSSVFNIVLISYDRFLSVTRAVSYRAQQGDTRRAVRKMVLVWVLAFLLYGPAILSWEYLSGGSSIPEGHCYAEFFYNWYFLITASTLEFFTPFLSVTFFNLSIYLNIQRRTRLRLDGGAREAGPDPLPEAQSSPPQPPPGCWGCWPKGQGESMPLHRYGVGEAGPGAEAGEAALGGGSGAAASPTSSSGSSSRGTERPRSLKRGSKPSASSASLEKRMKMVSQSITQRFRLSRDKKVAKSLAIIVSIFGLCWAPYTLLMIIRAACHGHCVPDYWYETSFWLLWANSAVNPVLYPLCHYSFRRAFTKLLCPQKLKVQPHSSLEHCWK

SMILES | H3 receptor Binding IC50 (H3 receptor) [µg/mL] | Guinea Pig Ileum (guinea pig ileum) | IC50 (H3 receptor) [µM] | activity on the guinea pig ileum (guinea pig ileum)
COC1=C(Br)C(O)C2(C=C1Br)CC(C(=O)NCCc1c[nH]cn1)=NO2 (centres unmarked) [Aerophobin-1] | 4.3 | not active |  | 
CN(C)CCCOc1c(Br)cc(CCN(C)C)cc1Br [Aplysamine-1] |  | antagonist | 0.833 | active on the guinea pig ileum as an H3 -antagonist
